Results from patent US20250042848A1, “DEUTERATED FUNCTIONALIZED DERIVATIVES OF alpha-ALANINE, IN [sequence] FOR THE TREATMENT OF NEUROLOGICAL DISEASES” (UNIWERSYTET JAGIELLONSKI, priority 2021, published 2025).

Columns and labels:
[1] = system: pentylenetetrazole-induced clonic seizures in mice; experiment: Subcutaneous pentylenetetrazole (scPTZ) seizure test; assay type: in vivo; conditions: for ED50 scPTZ: mice, in mg/kg; for latency of the first episode of clonic seizures in the scPTZ test: control 740+212.5 seconds
Description: (§1) Initial screening was performed on groups of 4 mice. The mean effective dose (ED50) in a given test and the neurotoxic dose in the rotarod test (TD50) were estimated on the basis of the results obtained on 3-4 groups of animals consisting of 6 animals.
In the subsutaneous pentylenetetrazole seizure test, the animals received pentylenetetrazole at a dose of 100 mg/kg. Test compounds were administered 30 minutes and 2 hours before the experiment. After PTZ administration, the animals were placed individually in transparent cages and observed for a period of 30 minutes/2 hours. During the experiment, the number of animals with a clonic seizure lasting at least 3 s with loss of balance was counted. In addition, the latency of the onset of the first clonic seizure was measured and compared with the control group (Ferreri, G. et al. Pharmacol. Biochem. Behav. 2004, 77, 859-894; Łączkowski, K. et. al. J. Enzym Inhib. Med. Chem. 2016, 31, 1576-1582).
(§2) The ED50 (effective dose) and TD50 (toxic dose) values along with the corresponding 95% confidence limits were calculated based on the Litchfield and Wilcoxon method (Litchfield, J.T.; Wilcoxon, F. J. Pharmacol. Exp. Ther. 1949, 96, 99-113). To perform a statistical evaluation of the results in the scPTZ test, one-way ANOVA variance analysis followed by Dunnett's post hoc test were used. The values were considered statistically significant if p<0.05.

CYP3A4 = CYP3A4 (Homo sapiens, UniProt P08684); conditions: cited from earlier work
Chain of CYP3A4 (P08684 whole entry): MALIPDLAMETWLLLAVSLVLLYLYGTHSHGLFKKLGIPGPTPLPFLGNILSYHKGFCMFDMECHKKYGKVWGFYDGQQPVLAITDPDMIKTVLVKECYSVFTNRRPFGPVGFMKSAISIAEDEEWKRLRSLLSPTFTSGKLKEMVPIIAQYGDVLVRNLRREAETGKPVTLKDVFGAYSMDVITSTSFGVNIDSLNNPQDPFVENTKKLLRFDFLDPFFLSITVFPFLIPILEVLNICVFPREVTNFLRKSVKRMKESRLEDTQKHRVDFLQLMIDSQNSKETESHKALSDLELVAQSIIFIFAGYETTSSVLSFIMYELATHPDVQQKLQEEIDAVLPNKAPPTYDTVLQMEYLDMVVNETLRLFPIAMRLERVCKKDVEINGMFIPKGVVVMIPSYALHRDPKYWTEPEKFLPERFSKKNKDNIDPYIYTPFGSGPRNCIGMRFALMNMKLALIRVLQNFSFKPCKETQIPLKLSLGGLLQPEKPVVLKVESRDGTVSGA

[2] = system: human liver microsomes (HLMs); experiment: In vitro metabolic stability, human liver microsomes; assay type: in vitro ADME; conditions: 120-minute incubation with HLMs
Description: (§3) Metabolic stability assessment was performed using mouse (MLMs) and human (HLMs) liver microsomes purchased from Sigma-Aldrich (St. Louis, MO, USA). The detailed methodology is described in the literature (Kamiński et al. J. Med. Chem. 2015, 58, 5274-5286). The reaction mixture was prepared by mixing […] of the tested compound with mouse or human microsomes (1 mg/mL) in 10 mM TRIS-HCl buffer. The reaction mixture was pre-incubated for 5 min at 37° C. After the initial incubation, 50 μL of the NADPH Regeneration System (Promega, Madison, WI, USA) was added to initiate the reaction. The reaction mixture was then incubated for 120 min at 37° C. 200 μL of cold extra pure methanol was added to complete the reaction. The mixture was then centrifuged at 14,000 g for 15 min and the supernatants were analyzed using a Waters ACQUITY™ TQD LC/MS system with a TQ detector (Waters, Milford, USA). Each experiment was performed in triplicate.

[3] = system: psychomotor seizures induced by a 32 mA, 6 Hz stimulus in mice; experiment: Psychomotor seizure test 6 Hz (32 mA); assay type: in vivo
Description: as §1
(§4) In the psychomotor seizure test (6 Hz test), seizures were induced by a 32 mA and/or 44 mA electrical stimulus of a frequency of 6 pulses per second. An electrical pulse was generated using an electric shock generator (ECT Unit 57800; Ugo Basile, Gemonio, Italy) and delivered to the animal using corneal electrodes. Before starting the test, the eye surface was gently moistened with a solution of local anesthetic (1% lidocaine solution). The study was conducted 30 minutes/2 hours after intraperitoneal administration of the compounds at various doses. An electrical stimulus was delivered continuously for a period of 3 seconds, followed by observation of the animal for a period of 10 seconds. During the experiment, the number of animals with an episode of psychomotor convulsions was counted: motor inhibition, staggering, maintaining a sitting posture, forelimb clonus, twitching of the vibrissae and Straub-tail were observed (Leclercq, K.; Kaminski, R.M. Epilepsia 2015, 56, 310-318).
as §2

[4] = system: maximal electroshock seizures in mice; experiment: Maximal electroshock seizure test (MES); assay type: in vivo
Description: as §1
In the maximal electroshock seizure test (MES), the seizures were induced by 500 V, 25 mA electrical stimulus of 0.2 s in duration. The electrical pulse was generated using an electric shock generator (Rodent shocker, Type 221, Hugo Sachs Elektronik, Germany) and delivered to the animal using electrodes placed on the auricles. The study was conducted 30 minutes/2 hours after intraperitoneal administration of the compounds at various doses. During the experiment, the number of animals that experienced a seizure episode in the form of hindlimb tonic extension was counted (Łuszczki, J.J. et al. Fundam. Clin. Pharmacol. 2008, 22, 69-74).
as §2

[5] = system: mouse liver microsomes (MLMs); experiment: In vitro metabolic stability, mouse liver microsomes; assay type: in vitro ADME; conditions: 120-minute incubation with MLMs, NADPH
Description: as §3

[6] = system: spontaneous locomotor activity of mice; conditions: mouse, in vivo; cited from earlier work
[7] = system: human liver microsomes (HLMs); conditions: cited from earlier work
[8] = system: psychomotor seizures induced by a 44 mA, 6 Hz stimulus in mice; experiment: Psychomotor seizure test 6 Hz (44 mA); assay type: in vivo; conditions: in mg/kg
Description: as §1, §4, §2

CYP2D9 = conditions: cited from earlier work
[9] = system: motor coordination of mice; conditions: in vivo; cited from earlier work
[10] = system: motor coordination of mice; experiment: Rotarod test (motor coordination, acute neurotoxicity); assay type: in vivo; conditions: in mg/kg
Description: as §1
The effect of the tested compounds on motor coordination was assessed in the rotarod test (May Commat, RR 0711 RotaRod, Turkey). The day before the actual experiment, the mice were trained on a rod rotating at 10 revolutions per minute (rpm) for 3 minutes. The experiment was performed 30 minutes and 2 hours after administration of the compounds. The motor coordination of the animals was tested at the speed of the rotating rod: 10 rpm for 60 seconds. The measure of neurotoxicity was the inability to stay on the rod for a given time (Łuszczki, J.J. et al. Eur. Neuropsychopharmacol. 2005, 6, 609-616).
as §2

[11] = 0.5 h after i.p. administration
[12] = 2.0 h after i.p. administration

Row | SMILES | ED50 scPTZ [1, 11] | ED50 scPTZ [1, 12] | latency of the first episode of clonic seizures in the scPTZ test ([1]; dose 40 mg/kg) | latency of the first episode of clonic seizures in the scPTZ test ([1]; dose 60 mg/kg) | interaction with CYP3A4 isoform of cytochrome P-450 (CYP3A4) | metabolic stability [2] | ED50 6 Hz (32 mA) [3, 11] [mg/kg] | ED50 6 Hz (32 mA) [3, 12] [mg/kg] | ED50 MES [4, 11] [mg/kg] | ED50 MES [4, 12] [mg/kg] | metabolic stability (metabolites in UPLC chromatograms) [5] | sedative effect in spontaneous locomotor activity test on mice [6] | metabolic stability on human microsomes [7] | ED50 6 Hz (44 mA) [8, 11] | ED50 6 Hz (44 mA) [8, 12] | interaction with CYP2D9 isoform of cytochrome P-450 (CYP2D9) | effect on mouse motor coordination in the rotarod test [9] | TD50 Rotarod [10, 11] | TD50 Rotarod [10, 12]
1 | C[C@H](C(=O)NCc1ccccc1)N1C(=O)CCC1=O [Compound 1, reference compound] | 30.6 | >130 | 1568+150.9 seconds | 1467+210.8 seconds | no interaction | high metabolic stability | 16.8 | > 130 | 57.7 | 95.3 | no metabolites appeared | no sedative effect | very high metabolic stability | 77.3 | >200 | no interaction | minimal effect | 236.2 | >300
2 | [2H]C1([2H])C(=O)N([C@H](C)C(=O)NCc2ccccc2F)C(=O)C1([2H])[2H] [d4-(R)-4, (R)—N-(2-fluorobenzyl)-2-(2,5-dioxopyrrolidin-1-yl-3,3,4,4-d4) propanamide] | – | – | – | – | – | high metabolic stability | 12.8 | 19.8 | 20.5 | 25.3 | – | – | – | 51.6 | 36.3 | – | – | 127.2 | >300
3 | [2H]C([2H])(NC(=O)[C@@H](C)N1C(=O)C([2H])([2H])C([2H])([2H])C1=O)c1ccccc1 [d6-(R)-5, (R)-2-(2,5-dioxopyrrolidin-1-yl-3,3,4,4-d4)-N-(phenylmethyl-d2) propanamide] | – | – | – | – | – | high metabolic stability | – | – | 33.4 | 28.7 | – | – | – | 85.6 | 50.8 | – | – | >100 | >300
4 | [2H]C([2H])(NC(=O)[C@@H](C)N1C(=O)C([2H])([2H])C([2H])([2H])C1=O)c1ccccc1F [d6-(R)-7, (R)-2-(2,5-dioxopyrrolidin-1-yl-3,3,4,4-d4)-N-((2-fluorophenyl)methyl-d2) propanamide] | – | – | – | – | – | high metabolic stability | 12.5 | 13.4 | – | – | – | – | – | 25.1 | 33.5 | – | – | >100 | >300
5 | [2H]c1c([2H])c([2H])c(CNC(=O)[C@@H](C)N2C(=O)C([2H])([2H])C([2H])([2H])C2=O)c([2H])c1[2H] [d9-(R)-2, (2R)-2-(2,5-dioxopyrrolidin-1-yl-3,3,4,4-d4)-N-((phenyl-d5)methyl) propanamide] | – | – | – | – | – | high metabolic stability | 18.2 | 68 | 45 | 57.7 | – | – | – | 78.3 | 109.8 | – | – | 165.4 | >300
6 | [2H]c1c([2H])c([2H])c(C([2H])([2H])NC(=O)[C@@H](C)N2C(=O)C([2H])([2H])C([2H])([2H])C2=O)c([2H])c1[2H] [d11-(R)-6, (R)-2-(2,5-dioxopyrrolidin-1-yl-3,3,4,4-d4)-N-((phenyl-d5)methyl-d2) propanamide] | – | – | – | – | – | high metabolic stability | – | – | 29.5 | 33.8 | – | – | – | 57.6 | 70.4 | – | – | >100 | >300
